Assay results reported in patent publication US6911324B2, “Induction of beta cell differentiation in human cells” (The Regents of the University of California, priority 2001, dated 2005).

Key:
Assay type in all cases: cell-based, human
βlox5/PDX-1/MycER cells = assay: PDX-1 cellular localization and p38 activation state
From the text: PDX-1 plays a role in the establishment and maintenance of β-cell differentiation. In both the βlox5 and TRM-6 cell lines, it is required for the induction of hormone expression. Therefore, PDX-1 was a good candidate for being a downstream target for c-Myc in the inhibition of hormone expression. Since, in the cell lines that we are studying, PDX-1 is introduced exogenously using a retroviral vector and is transcribed from the retroviral LTR promoter, it was unlikely that c-Myc would be acting at the transcriptional level. Therefore, we investigated PDX-1 cellular localization in βlox5/PDX-1/MycER cells in the presence and absence of 4-OHTM. […] However, many cells exposed to 4-OHTM continued to express PDX-1 in the nucleus and PDX-1 binding to a target DNA sequence could still be detected by EMSA. This could be due to the length of time that the cells were exposed to 4-OHTM or to other pathways such as p38 (RK/SAPK2) that influences PDX-1 localization and function.
Because PDX-1 localization has been reported to be influenced by the p38 pathway, the activation state of p38 was studied using a monoclonal antibody specific for the phosphorylated/active form of the enzyme. In control and 4-OHTM-treated βlox5/PDX-1/MycER cells, active p38 was present in the cytoplasm.

[1] = test system: βlox5/PDX-1/MycER aggregates; assay: Transcription factor expression after c-Myc activation (RT-PCR, EMSA, western blot); conditions: c-Myc activation by 4-OHTM
Description: For western blots, whole-cell extracts (10 μg of protein) from monolayer cultures and aggregates of TRM-6 and βlox5 cells as well as whole-cell extracts of the MycER expressing clones were used. Expression of c-Myc and MycER was determined by Western blot analysis with the human c-Myc-specific monoclonal antibody Myc-9E10 (Santa Cruz Biotechnology, Santa Cruz, Calif.) at a dilution of 1:250. The same membrane was re-probed with anti-actin rabbit antibody A2066 (Sigma, Saint Louis, Mo.) in order to verify the protein equivalence when comparing monolayers to aggregates. Western Blot for Phospho-CREB (Ser133) was performed using a polyclonal antibody (PhosphoPlusCREB (Ser133) Antibody Kit, Cell Signaling Technology, Beverly, Mass.) at a dilution of 1:500. Bound antibody was detected with horseradish peroxidase-linked anti-mouse or anti-rabbit Ig (Amersham Pharmacia Biotech, Buckinghamshire, England) and ECL (Amersham Pharmacia Biotech, Buckinghamshire, England).
βlox5 cells express Pax6 and RIPE3b in both the uninduced and induced states. BETA2/NeuroD is present only when the cells are induced. […] As shown by electrophoretic mobility shift assay analysis (EMSA), although not quantitative, we found binding of PDX-1, BETA2/NeuroD1 or RIPE3b to the insulin promoter in the samples from βlox5/PDX-1/MycER aggregates cultured with and without 4-OHTM. […]

[2] = test system: βlox5/PDX-1/MycER aggregates; assay: Hormone expression after c-Myc induction in βlox5/PDX-1/MycER aggregates (RT-PCR, insulin ELISA)
Description: (§1) To determine whether the induction of differentiation in the TRM-6 and βlox5 cell lines requires downregulation of c-Myc expression, the effect of inducing c-Myc activity on hormone expression in cells expressing the MycER fusion protein was tested. 4-OHTM or the same amount of ethanol carrier was added to TRM-6/PDX-1 and βlox5/PDX-1 cells at the initiation of the four day period of aggregation required for hormone induction. In addition, 100 nM of the GLP-1 agonist exendin-4 was added to βlox5/PDX-1, as activation of the GLP-1 receptor is necessary for β-cell differentiation in that cell line (Itkin-Ansari, et al., Molec. Endocrinol. 14:814-822(2000)).
(§2) In the absence of 4-OHTM, TRM-6 aggregates expressed high levels of somatostatin after four days of aggregation, while βlox5 aggregates expressed high levels of insulin. […] Insulin protein (273±70.5 pmoles/L) was detected by ELISA in supernatant from βlox5/PDX-1/MycER aggregates in the absence of 4-OHTM but was undetectable in the presence of 4-OHTM. Data were obtained from four independent experiments. To determine whether c-Myc activation produced ablation of hormone expression as opposed to a switch to a different endocrine lineage, the expression of the other major pancreatic hormones, somatostatin, glucagon and pancreatic polypeptide, was measured in 4-OHTM-treated βlox5/PDX-1/MycER cells and found to be absent.

βlox5/PDX-1 cells = assay: Expansion of βlox5/PDX-1 cells under continued administration; conditions: continued administration of 4-OHTM; cells ordinarily almost completely growth arrested
From the text: The finding that c-Myc induces the translocation of PDX-1 to the cytoplasm provides important clues to the mechanism by which c-Myc may act on pancreatic endocrine cell proliferation and differentiation. In our system, not only does PDX-1 play a role in inducing hormone expression, but it also produces a marked growth arrest, particularly in the β-cell line βlox5. […] Thus, cell-cell contact and PDX-1 each play dual roles in inhibiting entry into the cell cycle as well as promoting differentiation.

TRM-6/PDX-1 cells = assay: Somatostatin expression after c-Myc induction in TRM-6 aggregates; conditions: four days of aggregation, presence of 4-OHTM
Description: as §1, §2

[3] = test system: βlox5/PDX-1/MycER aggregates; assay: Ki-67 immunostaining for cell proliferation; conditions: 4-OHTM added to aggregates; 16% without 4-OHTM; n=300 cells
From the text: PDX-1 and cell-cell contact caused a decrease in cell proliferation in βlox5/PDX-1/MycER cells as shown by immunostaining for the proliferation-associated nuclear antigen Ki-67. In monolayer culture, 77% of βlox5 cells expressed Ki67, while only 16% of the cells in βlox5/PDX-1/MycER aggregates were Ki67 positive (n=300 cells in each case). Addition of 4-OHTM to the aggregates increased the percentage of Ki67 positive cells to 57%. In the absence of 4-OHTM, few cells in the aggregates were positive for Ki-67, while in the presence of 4-OHTM many cells throughout the aggregates were positive.

MycER fusion protein = assay: RT-PCR of c-Myc downstream targets cyclin E and cyclin A after MycER activation; conditions: βlox5/PDX-1/MycER aggregates
From the text: To test the hypothesis that decreased c-Myc expression in cell aggregates plays a causal role in promoting differentiation by cell-cell contact, we took advantage of the inducible properties of a fusion protein between an estrogen receptor and c-Myc (Eilers, et al. Nature 340:66-68 (1989)). MycER was expressed in TRM-6 and βlox5 by retroviral infection followed by puromycin selection. Selected βlox5 and TRM-6 cells expressed MycER as shown by western blot analysis. To determine whether the fusion protein was active, the expression of cyclin E and cyclin A was determined since they are known downstream targets of c-Myc.

βlox5 cells [4] = assay: RT-PCR analysis of pancreatic hormone gene expression in βlox5 cells
Description: FIG. 2: RT-PCR analysis of pancreatic hormone gene expression in βlox5. The conditions tested were βlox5 cells grown in monolayer culture, βlox5 cells infected with a retroviral vector expressing PDX-1, βlox5 cells grown as three-dimensional aggregates, and βlox5 cells treated with exendin-4. FIG. 2(A) insulin; FIG. 2(B) quantitative RT-PCR analysis of insulin gene expression; FIG. 2(C) other pancreatic hormones. Exendin-4 (Sigma) was used at a concentration of 10 nM. RT-PCR for insulin, somatostatin, glucagon, and IAPP have been described previously (Itkin-Ansari et al., submitted). Quantitative RT-PCR was done by interpolation from a standard curve constructed using a plasmid containing the human insulin cDNA.
PDX-1 also acted synergistically with cell-cell contact to further increase the level of somatostatin expression about 1,000-fold above the cells not expressing PDX-1, to a level similar to that found in normal human islets. To determine whether βlox5 could be induced to express pancreatic hormones, recombinant PDX-1 was expressed in βlox5 using a retroviral vector. […] Therefore, other factors were examined for their ability to induce hormone expression in βlox5 cells expressing PDX-1. Activin and betacellulin have been reported to be able to induce endocrine differentiation in cell lines and primary cells (Mashima et al., Diabetes 48:304-9 (1999), Huotari et al., Endocrinology 139, 1494-9 (1998), Mashima et al., J Clin Invest 97:1647-54 (1996), Yamaoka et al., J Clin Invest 102:294-301 (1998)). However, they had no effect on hormone expression in βlox5 cells (data not shown).
GLP-1, a small peptide cleaved from the proglucagon molecule, is an insulin secretogogue Drucker et al., Diabetes 47:159-69 (1998)).

[5] = test system: βlox5 cells expressing both NeuroD/BETA2 and PDX-1; assay: Insulin production (RT-PCR) in βlox5 cells expressing both NeuroD/BETA2 and PDX-1
Description: Cells were cultured in DMEM with 5.5 mM glucose and 10% FBS. Selection of clones was conducted in the same medium containing 300 ug/ml Hygromycin B. Qualitative RT-PCR was performed according to Itkin-Ansari et al., Mol. Endocrinol. 14:814-822 (2000).
In light of the previous finding that activation of GLP-1 receptor is one of the necessary inducing factors for β-cell differentiation, βlox5 cells expressing both NeuroD/BETA2 and PDX-1 were also tested for insulin production, before and after stimulation by exendin-4. The cells were treated with 10 nM exendin-4 in the culture medium for four days before the assay.
Cell aggregation was induced as described by Itkin-Ansari et al., supra, 2000. Quantitative insulin RT-PCR was performed by interpolation from a standard curve constructed using a plasmid containing the human insulin cDNA, as described by Beattie et al., Diabetes, 48:1013-1019, 1999.

βlox5 cells [6] = assay: Analysis of transcription factors (BETA2 RT-PCR, CREB western blot) in βlox5 cells
Description: FIG. 3: Analysis of transcription factors expressed in βlox5 cells. FIG. 3(A) electrophoretic mobility shift assay (EMSA) of PDX-1. EMSA for PDX-1 was performed using a probe derived from the human insulin promoter A5 element. FIGS. 3(B&C) RT-PCR analysis of BETA2 and Pax6. FIG. 3(D) Western blot analysis of CREB. FIG. 3(E) EMSA of RIPE3b.
The expression of transcription factors important in β-cell development was examined to determine whether they had been induced by PDX-1, cell-cell contact, and exendin-4. […] GLP-1 has been reported to increase cAMP levels and this has been thought to be a major mechanism by which GLP-1 acts as an insulin secretogogue (Serre et al., Endocrinology 139:4448-54 (1998)). […] RIPE3b, a factor that plays a critical role in insulin gene expression but that has not yet been cloned, is expressed in βlox5 irrespective of PDX-1, cell-cell contact, or exendin-4 (FIG. 3E).

[7] = induced βlox5 cells (PDX-1, cell-cell contact, exendin-4)

CC/C(=C(\c1ccc(O)cc1)c1ccc(OCCN(C)C)cc1)c1ccccc1 [4-OHTM]
PDX-1 cellular localization (βlox5/PDX-1/MycER cells; 4-OHTM-induced activation of c-Myc): translocation of PDX-1 from the nucleus to the cytoplasm
p38 expression or activation (βlox5/PDX-1/MycER cells; 4-OHTM-treated cells, antibody to phosphorylated/active p38): did not result in any changes
level of mRNA for Pax6 and induction of BETA2/NeuroD1 gene expression ([1]; RT-PCR): did not result in a change
CREB expression ([1]; western blot): not affected
expression of somatostatin, glucagon and pancreatic polypeptide ([2]; 4-OHTM-treated βlox5/PDX-1/MycER cells): absent
insulin mRNA ([2]; four days of aggregation, 100 nM exendin-4, presence of 4-OHTM): neither somatostatin nor insulin mRNA was present
insulin protein in supernatant by ELISA ([2]; presence of 4-OHTM, 273±70.5 pmoles/L in its absence, four independent experiments): undetectable
cell growth (βlox5/PDX-1 cells): rapid expansion
somatostatin mRNA (TRM-6/PDX-1 cells): neither somatostatin nor insulin mRNA was present
percentage of Ki67 positive cells [3]: 57%
cyclin A expression (MycER fusion protein): did not affect
cyclin E mRNA expression (MycER fusion protein): increase

Activin
effect on hormone expression in βlox5 cells (βlox5 cells [4]; βlox5 cells expressing PDX-1, data not shown): no effect

exendin-4
insulin production ([5]; 10 nM exendin-4, suspension culture, three-dimensional aggregates): clearly detectable
insulin production ([5]; exendin-4 treatment alone, 10 nM, four days): incapable of inducing insulin production
effect on hormone expression in βlox5 (βlox5 cells [4]; exendin-4 by itself, 10 nM, four days): no effect
Islet amyloid polypeptide (IAPP) mRNA (βlox5 cells [4]; [7]): expressed
glucagon, somatostatin and pancreatic polypeptide (PP) expression (βlox5 cells [4]; [7]): not induced
insulin mRNA (βlox5 cells [4]; βlox5 cells expressing PDX-1, suspension culture as three-dimensional aggregates, 10 nM exendin-4): a substantial amount of insulin mRNA was detectable
BETA2 expression (βlox5 cells [6]; PDX-1, cell-cell contact and exendin-4): induced only by the combination of all three inducing factors
CREB expression (βlox5 cells [6]; exendin-4 alone, independently of cell-cell contact and PDX-1): induced
